These are literature values, as cited in US10336750B2, “Composition and methods for the treatment of CaMKK2-mediated disorders” (Duke University, priority 2015, dated 2019).

The subject of this data set is neovascular remodeling (NVR) in experimental laser-induced CNV. The following applies: aged (16 month-old) mice, systemic depletion of macrophages, compared to sham control.

As to `O=P(O)(O)C(Cl)(Cl)P(=O)(O)O` [clodronate], the “NVR phenotype, lesion size and fibrosis (choroidal flatmounts by FITC-dextran)” value was “abrogation of the NVR phenotype, resulting in smaller lesions with less fibrosis”.
